The values that follow come from US4426453A, “Derivatives of iodothyronine compounds and their use in an assay for the free iodothyronine compounds” (Amersham International Limited, priority 1980, dated 1984).

Data set [1] has as its target T1, TBG (Homo sapiens, UniProt P05543).
T1 sequence (P05543 21-415): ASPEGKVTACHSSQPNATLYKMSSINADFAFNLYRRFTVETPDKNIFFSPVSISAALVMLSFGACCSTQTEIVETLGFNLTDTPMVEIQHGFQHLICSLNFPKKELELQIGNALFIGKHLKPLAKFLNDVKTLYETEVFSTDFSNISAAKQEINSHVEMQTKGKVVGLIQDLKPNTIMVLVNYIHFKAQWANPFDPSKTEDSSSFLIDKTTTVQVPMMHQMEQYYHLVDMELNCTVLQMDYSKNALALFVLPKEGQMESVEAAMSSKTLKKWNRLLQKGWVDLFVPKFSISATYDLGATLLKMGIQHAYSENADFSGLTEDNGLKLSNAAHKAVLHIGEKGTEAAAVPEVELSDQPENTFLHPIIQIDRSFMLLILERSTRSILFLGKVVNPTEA
Briefly: T4.EDTA binding strength to TBG relative to T4 (displacement of 125I-T4 tracer from TBG:anti-TBG binding reagent). Further details: 1 ml of resin stripped human serum; from tissue; host or cells: human serum (resin stripped). The conditions noted are these: for binding to TBG (in words): qualitative. The procedure: (§1) Pre-precipitated antiserum (binding reagent) to either TBG or prealbumin is incubated with a serum source of TBG or prealbumin, so that the T4 binding protein is isolated on the binding reagent. Tracer ^125 I-T4 is added to the resulting complex and is thus purified. The displacement of the tracer ^125 I-T4, by varying concentrations of T4 and T4.EDTA, from the TBG or prealbumin, can then be studied. The results can be used to estimate the differences in binding affinity between T4 and T4.EDTA for the two T4 binding proteins.
15% Donkey anti-sheep in phosphate
2% TBG Antiserum buffer + 0.05% BSA
Equal quantities of the above solutions are mixed and rotated overnight at 4° so that the final concentrations in the binding reagent are 7.5% donkey anti-sheep, and 1% TBG antiserum. Centrifugation at 900 rpm, decantation and resuspension in fresh buffer are carried out twice to wash the reagent.
1 ml of resin stripped human serum and 20 ml of the above binding reagents are mixed for 1 hour at room temperature. Centrifugation, decantation and resuspension in fresh buffer (phosphate+0.05% BSA) are carried out twice.
Typically 10 ml of TBG:anti-TBG binding reagents, 28 ml of phosphate buffer+0.05% BSA, and 2 ml of ^125 I-T4 tracer solution (0.1 μCi high specific activity T4 per ml in phosphate buffer+0.05% BSA) are mixed for 1 hour at room temperature. Centrifugation, decantation and resuspension in fresh buffer (phosphate+0.05% BSA) are carried out twice. Once prepared the tracer T4:TBG:anti-TBG binding reagent is used immediately.
The stock solutions are diluted in phosphate buffer+0.005% BSA. […]
(§2) Thus the percentage bound of the tracer at different T4 and T4.EDTA concentrations, can be determined in the two systems.
(§3) Tracer percentage bound is plotted against T4 and T4.EDTA concentrations, and from these curves an estimate of the non-specific binding can be made. The data can then be re-calculated, using this blank correction, plotted, and the T4 and T4.EDTA concentrations corresponding to a range of tracer percentage bound values can be read off the curve. […]
For orientation: Loss of bound radioactivity is the signal in a displacement assay; it reports binding, not function.

Data set [2] can be described thus: Stability in water / assay buffer. It counts as physicochemical. The conditions noted are these: qualitative.
Data set [3] has as its system Antisera (having low T4 cross reactivity). Briefly: Binding to antisera having low T4 cross reactivity. The following applies: antisera with low T4 cross reactivity; compared with T3.
The target of data set [4] is T1, TBG. The conditions noted are these: blood stream of human beings; cited from earlier work.
In data set [5] the test system is TBPA. The following applies: blood stream of human beings; cited from earlier work.
Data set [6] has as its system Albumin. The following applies: blood stream of human beings; cited from earlier work.
For data set [7], the target named is T2, TBPA (prealbumin) (Homo sapiens, UniProt P02766).
T2 construct: from tissue; host or cells: normal serum
Briefly: T4.EDTA binding strength to prealbumin (TBPA) relative to T4 (displacement of 125I-T4 tracer from TBPA:anti-TBPA binding reagent). The procedure:
as §1
This is prepared as for the anti-TBG binding reagent except that equal volumes of 30% donkey anti-rabbit second antibody and 4% TBPA antiserum solutions were mixed to give final concentrations of 15% donkey anti-rabbit, and 2% anti-TBPA.
600 μl normal serum and 20 ml anti-TBPA binding reagent are mixed for 1 hour at room temperature. […]
as §2, §3

Data set [8] concerns T4 antiserum. Briefly: Affinity with respect to T4 antiserum. The data set is classed as binding.
For data set [9], the system named is solid phase T4 antibody (T4-specific antiserum on latex particles). Briefly: Free-T4 assay using T4.EDTA tracer: standard curve. It counts as binding. The conditions noted are these: 37° C., one hour. The source says: T4.EDTA was labelled with ^125 I by an exchange reaction using sodium iodide-^125 I and chloramine-T. The specific activity obtained was typically 500 millicuries per milligram, and was used as a working concentration of 0.13 microcuries per […] in a 60 millimolar phosphate buffer, pH 7.4, containing 0.9% sodium chloride, 0.9% bovine serum albumin and 0.1% sodium azide.
A solid phase antibody was used consisting of T4-specific antiserum bound on to micron sized latex particles such that the suspension contained 0.66 milligram of latex particles per milliliter and antibodies from 0.5 microliters of T4-specific antiserum per milligram of latex. The buffer was 10 millimolar phosphate, pH 7.4 containing 0.1% sodium azide.
A set of 6 human serum pools were prepared by standard techniques to contain free-T4 concentrations ranging from zero to approximately 10 nanograms per deciliter. These standards were calibrated with reference to an equilibrium dialysis free T4 assay.
The free T4 assay was set up in polystyrene assay tubes following this protocol:
100 μl serum standard or unknown serum sample
500 μl ^125 I-T4.EDTA tracer solution.
500 μl solid phase T4 antibody suspension.
The assay tubes were vortex mixed, and incubated at 37° C. in a water bath for one hour. The tubes were centrifuged at 1500 g for 20 minutes and the supernatant liquid decanted. The readioactivity of the precipitate was measured.

Where [10] appears, read: % of the affinity constant of T4, 37° C.

Entries after “also recorded” stand apart in the source; their conditions may differ.

As to `COC(=O)[C@H](Cc1cc(I)c(Oc2cc(I)c(O)c(I)c2)c(I)c1)NC(C)=O` [N-Acetyl-thyroxine-methyl ester, N-acetyl-thyroxine-methyl ester, reference compound], the “binding to TBG (in words)” value in data set [1] was “binds appreciably to TBG”. The “stability in water / usable time after dilution into the assay buffer” value in data set [2] is reported as “only gives useful assay results within hours of dilution into the assay buffer”.

As to `O=C(O)CN(CCN(CC(=O)O)CC(=O)NC(Cc1cc(I)c(Oc2ccc(O)c(I)c2)c(I)c1)C(=O)O)CC(=O)O` (stereo not shown) [T3.EDTA, 2-carboxy-6,9-dicarboxymethyl-1 3',5'di-iodo-4'(3"-iodo-4"-hydroxy)phenoxy phenyl 4-oxo-3,6,9-triazaundecan-11-oic acid], the “binding to antisera relative to T3” value in [3] is recorded as “equal, or better, binding than T3 itself”.

As to `N[C@@H](Cc1cc(I)c(Oc2cc(I)c(O)c(I)c2)c(I)c1)C(=O)O` [T4, Thyroxine], the “percentage of T4 bound to TBG” value in data set [4] is “approximately 70%”. In addition, the “percentage of T4 bound to TBPA” value in [5] is recorded as 20-25%. Further, the “percentage of T4 bound to Albumin” value in data set [6] is 5-10%.

Regarding `O=C(O)CN(CCN(CC(=O)O)CC(=O)NC(Cc1cc(I)c(Oc2cc(I)c(O)c(I)c2)c(I)c1)C(=O)O)CC(=O)O` (stereo not shown) [T4.EDTA, 1-{3',5'-di-iodo-4'(3",5"-di-iodo-4"-Hydroxyphenoxy)phenyl}2-carboxy-6,9-dicarboxymethyl-4-oxo-3,6,9-triazaundecan-11-oic acid], the “affinity constant for TBPA relative to that of T4” value in [7] (setting [10]) amounted to 2.7%. Further, the “binding to TBPA (in words)” value in data set [7] (qualitative) was “binds only very weakly to TBG and TBPA”. The “affinity constant for TBG relative to that of T4” value in data set [1] (setting [10]) is 3.5%. In data set [1], the “binding to TBG (in words)” value is given as “binds only very weakly to TBG; also recorded: shows no significant tendency to bind to TBG”. Also, the “affinity constant with respect to T4 antiserum relative to that of T4” value in data set [8] (% of that of T4) was found to be 90.4%. Moreover, the “binding to T4 antiserum (in words)” value in [8] (relative to T4) was “binds almost as strongly to T4 antiserum as does T4 itself”. The “stability in water / usable time after dilution into the assay buffer” value in data set [2] is on record as “stable in water”.

On to `O=C(O)CN(CCN(CC(=O)O)CC(=O)NC(Cc1cc(I)c(Oc2cc(I)c(O)c(I)c2)c(I)c1)C(=O)O)CC(=O)O` (stereo not shown) [^125 I-T4.EDTA], for which the “% radioactivity in solid phase” value was 61.8% in data set [9] (free T4 0 ng/dl); 41.2% in data set [9] (free T4 0.45 ng/dl); 30.8% in data set [9] (free T4 0.95 ng/dl); 21.1% in [9] (free T4 1.9 ng/dl); 12.4% in data set [9] (free T4 4.9 ng/dl); 9.3% in data set [9] (free T4 9.0 ng/dl).
